# Test results as given in PubChem BioAssay (NCI).
#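 Interpolation was linear, between the two tested concentrations surrounding the appropriate level; five concentrations were tested over 48 hours in 96-well plates. At the TGI there is no net growth.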
# Legend:
# Assay in all cases: NCI anticancer screen, dose series, 48 h
# [1] = test system: A549 NSCLC
# [2] = test system: BT-549 breast
# [3] = test system: DU-145 prostate
# [4] = test system: HL-60(TB) leukemia
# [5] = test system: HOP-62 NSCLC
# [6] = test system: HS 578T breast
# [7] = test system: MDA-N
# [8] = test system: NCI-H226 lung
# [9] = test system: PC-3 prostate
# [10] = test system: RXF 393 renal
# [11] = test system: SNB-19 CNS
# [12] = test system: SR leukemia
# [13] = test system: DLD-1 colon
# [14] = test system: DMS 114 small cell lung
# [15] = test system: HOP-18 NSCLC
# [16] = test system: KM20L2 colon
# [17] = test system: M19-MEL melanoma
# [18] = test system: SNB-78 CNS
# [19] = test system: DMS 273 small cell lung
# [20] = test system: A498 renal
SMILES,TGI [1] [µM],TGI [2] [µM],TGI [3] [µM],TGI [4] [µM],TGI [5] [µM],TGI [6] [µM],TGI [7] [µM],TGI [8] [µM],TGI [9] [µM],TGI [10] [µM],TGI [11] [µM],TGI [12] [µM],TGI [13] [µM],TGI [14] [µM],TGI [15] [µM],TGI [16] [µM],TGI [17] [µM],TGI [18] [µM],TGI [19] [µM],TGI [20] [µM]
COc1cccc(CC2Cc3ccccc3CC(=O)N2)c1 (centres undefined),> 100,92.1,> 100,> 100,72.5,68.2,> 100,> 100,> 100,> 100,> 100,> 100,–,–,–,–,–,–,–,–
O=C1OCc2cccc3c2-c2c1cccc2C(=O)OC3,–,–,–,> 100,> 100,–,–,–,–,> 100,> 100,> 100,> 100,> 100,> 100,> 100,> 100,> 100,–,–
c1ccc(-c2nnc(-c3nsc4ccccc34)o2)cc1,> 100,–,–,> 100,> 100,–,–,–,–,> 100,> 100,–,–,> 100,–,> 100,> 100,> 100,> 100,–
CCOC(=O)C1=C(C)N(NC(N)=O)C2(O)CCCC(=O)C12C (centres undefined),> 100,–,–,–,–,–,–,> 100,–,> 100,> 100,–,> 100,> 100,> 100,> 100,–,> 100,> 100,> 100
O=C(O)C12CCCC(CCC1)C2,> 100,–,–,> 100,> 100,–,–,–,–,> 100,> 100,–,> 100,> 100,–,–,–,> 100,> 100,> 100
CC(C)C1OC(/C=C/c2ccccc2)OCC1(C)C (centres undefined),> 100,> 100,> 100,38.3,> 100,88.7,> 100,63,> 100,42.3,> 100,> 100,–,–,–,–,–,–,–,63.7
NC(CCOCCP(=O)(O)CCOCCC(N)C(=O)O)C(=O)O (centres undefined),> 100,–,> 100,> 100,–,> 100,–,–,–,> 100,> 100,> 100,–,–,–,–,–,–,–,–
CCCCC(=O)Oc1ccc2c(C)cc(=O)oc2c1,> 100,> 100,> 100,> 100,> 100,> 100,> 100,> 100,> 100,> 100,> 100,> 100,–,–,–,–,–,–,–,> 100
CCCCS(=O)(=O)Nc1ccc(Nc2c3ccccc3nc3ccccc23)c(OC)c1,7.07,–,–,–,10.7,–,–,16.9,–,11,14.5,–,24.4,–,19.8,11.9,19.6,18.9,3.37,9.85
